# Test results from the supplement of paper PMC10307832.
# What was measured:
# Experiment in all cases: relative viability (nuclei count vs DMSO), 5 days (fraction); higher = more cells survive
# NCI-H1395 = test system: NCI-H1395
# Procedure, shortened: (§1)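 Medians of duplicate plates are given as relative viability. That measure is the nuclei count in treated wells divided by the count in vehicle wells. Counts were taken on 4× images of lung cancer cell lines in 1536-well plates, 5 days after pin-tool dosing the day after seeding with one drug alone or a fixed anchor-drug dose plus five library-drug doses (not always all listed) in √10 steps.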
# NCI-H2347 = test system: NCI-H2347
# Procedure, shortened: as §1
# NCI-H2087 = test system: NCI-H2087
# Procedure, shortened: as §1
# NCI-H1666 = test system: NCI-H1666
# Procedure, shortened: as §1
# NCI-H838 = test system: NCI-H838
# Procedure, shortened: as §1
# EMC-BAC-2 = test system: EMC-BAC-2
# Procedure, shortened: as §1
# NCI-H1993 = test system: NCI-H1993
# Procedure, shortened: as §1
# HARA = test system: HARA
# Procedure, shortened: as §1
# NCI-H647 = test system: NCI-H647
# Procedure, shortened: as §1
# NCI-H3122 = test system: NCI-H3122
# Procedure, shortened: as §1
# NCI-H2009 = test system: NCI-H2009
# Procedure, shortened: as §1
# NCI-H727 = test system: NCI-H727
# Procedure, shortened: as §1
# LCLC-103H = test system: LCLC-103H
# Procedure, shortened: as §1
# HCC-44 = test system: HCC-44
# Procedure, shortened: as §1
# LOU-NH91 = test system: LOU-NH91
# Procedure, shortened: as §1
# NCI-H596 = test system: NCI-H596
# Procedure, shortened: as §1
# NCI-H23 = test system: NCI-H23
# Procedure, shortened: as §1
# NCI-H2023 = test system: NCI-H2023
# Procedure, shortened: as §1
# BEN = test system: BEN
# Procedure, shortened: as §1
# NCI-H2126 = test system: NCI-H2126
# Procedure, shortened: as §1
# 201T = test system: 201T
# Procedure, shortened: as §1
# NCI-H650 = test system: NCI-H650
# Procedure, shortened: as §1
# NCI-H441 = test system: NCI-H441
# Procedure, shortened: as §1
# NCI-H522 = test system: NCI-H522
# Procedure, shortened: as §1
structure (smiles),measurement,setting,value
COc1cc(N2CCC(C(N)=O)CC2)ccc1Nc1nc(N)c(Cl)c(Nc2ccccc2S(=O)(=O)C(C)C)n1 [HG-5-88-01] + O=C(c1cc(Cc2n[nH]c(=O)c3ccccc23)ccc1F)N1CCN(C(=O)C2CC2)CC1 [Olaparib] (partner 8 µM),relative viability,NCI-H1395; first compound 0.04 µM,0.499
same,relative viability,NCI-H1395; first compound 0.1265 µM,0.467
same,relative viability,NCI-H1395; first compound 0.4 µM,0.48
same,relative viability,NCI-H1395; first compound 1.265 µM,0.472
same,relative viability,NCI-H1395; first compound 4 µM,0.487
same,relative viability,NCI-H2347; first compound 0.04 µM,0.664
same,relative viability,NCI-H2347; first compound 0.1265 µM,0.569
same,relative viability,NCI-H2347; first compound 0.4 µM,0.61
same,relative viability,NCI-H2347; first compound 1.265 µM,0.539
same,relative viability,NCI-H2347; first compound 4 µM,0.549
same,relative viability,NCI-H2087; first compound 0.04 µM,0.557
same,relative viability,NCI-H2087; first compound 0.1265 µM,0.645
same,relative viability,NCI-H2087; first compound 0.4 µM,0.585
same,relative viability,NCI-H2087; first compound 1.265 µM,0.536
same,relative viability,NCI-H2087; first compound 4 µM,0.502
same,relative viability,NCI-H1666; first compound 0.04 µM,0.759
same,relative viability,NCI-H1666; first compound 0.1265 µM,0.737
same,relative viability,NCI-H1666; first compound 0.4 µM,0.816
same,relative viability,NCI-H1666; first compound 1.265 µM,0.771
same,relative viability,NCI-H1666; first compound 4 µM,0.684
same,relative viability,NCI-H838; first compound 0.04 µM,0.793
same,relative viability,NCI-H838; first compound 0.1265 µM,0.766
same,relative viability,NCI-H838; first compound 0.4 µM,0.67
same,relative viability,NCI-H838; first compound 1.265 µM,0.557
same,relative viability,NCI-H838; first compound 4 µM,0.452
same,relative viability,EMC-BAC-2; first compound 0.04 µM,0.482
same,relative viability,EMC-BAC-2; first compound 0.1265 µM,0.526
same,relative viability,EMC-BAC-2; first compound 0.4 µM,0.615
same,relative viability,EMC-BAC-2; first compound 1.265 µM,0.459
same,relative viability,EMC-BAC-2; first compound 4 µM,0.46
same,relative viability,NCI-H1993; first compound 0.04 µM,1.12
same,relative viability,NCI-H1993; first compound 0.1265 µM,1.03
same,relative viability,NCI-H1993; first compound 0.4 µM,0.949
same,relative viability,NCI-H1993; first compound 4 µM,0.842
same,relative viability,HARA; first compound 0.04 µM,1.07
same,relative viability,HARA; first compound 0.1265 µM,1.02
same,relative viability,HARA; first compound 0.4 µM,0.456
same,relative viability,HARA; first compound 1.265 µM,0.526
same,relative viability,HARA; first compound 4 µM,0.862
same,relative viability,NCI-H647; first compound 0.04 µM,0.552
same,relative viability,NCI-H647; first compound 0.1265 µM,0.553
same,relative viability,NCI-H647; first compound 1.265 µM,0.667
same,relative viability,NCI-H647; first compound 4 µM,0.738
same,relative viability,NCI-H3122; first compound 0.04 µM,0.594
same,relative viability,NCI-H3122; first compound 0.1265 µM,0.403
same,relative viability,NCI-H3122; first compound 0.4 µM,0.3
same,relative viability,NCI-H3122; first compound 1.265 µM,0.285
same,relative viability,NCI-H3122; first compound 4 µM,0.15
same,relative viability,NCI-H2009; first compound 0.04 µM,0.684
same,relative viability,NCI-H2009; first compound 0.1265 µM,0.651
same,relative viability,NCI-H2009; first compound 0.4 µM,0.687
same,relative viability,NCI-H2009; first compound 1.265 µM,0.685
same,relative viability,NCI-H2009; first compound 4 µM,0.684
same,relative viability,NCI-H727; first compound 0.04 µM,0.715
same,relative viability,NCI-H727; first compound 0.1265 µM,0.705
same,relative viability,NCI-H727; first compound 0.4 µM,0.827
same,relative viability,NCI-H727; first compound 4 µM,0.572
same,relative viability,LCLC-103H; first compound 0.04 µM,0.714
same,relative viability,LCLC-103H; first compound 0.1265 µM,0.748
same,relative viability,LCLC-103H; first compound 0.4 µM,0.697
same,relative viability,LCLC-103H; first compound 1.265 µM,0.654
same,relative viability,LCLC-103H; first compound 4 µM,0.719
same,relative viability,HCC-44; first compound 0.04 µM,0.912
same,relative viability,HCC-44; first compound 0.1265 µM,0.957
same,relative viability,HCC-44; first compound 0.4 µM,0.934
same,relative viability,HCC-44; first compound 1.265 µM,0.921
same,relative viability,HCC-44; first compound 4 µM,0.919
same,relative viability,LOU-NH91; first compound 0.04 µM,0.861
same,relative viability,LOU-NH91; first compound 0.1265 µM,0.882
same,relative viability,LOU-NH91; first compound 0.4 µM,0.733
same,relative viability,LOU-NH91; first compound 1.265 µM,0.514
same,relative viability,LOU-NH91; first compound 4 µM,0.618
same,relative viability,NCI-H596; first compound 0.04 µM,0.729
same,relative viability,NCI-H596; first compound 0.1265 µM,0.734
same,relative viability,NCI-H596; first compound 0.4 µM,0.682
same,relative viability,NCI-H596; first compound 1.265 µM,0.777
same,relative viability,NCI-H596; first compound 4 µM,0.694
same,relative viability,NCI-H23; first compound 0.04 µM,0.321
same,relative viability,NCI-H23; first compound 0.1265 µM,0.279
same,relative viability,NCI-H23; first compound 0.4 µM,0.303
same,relative viability,NCI-H23; first compound 1.265 µM,0.334
same,relative viability,NCI-H23; first compound 4 µM,0.194
same,relative viability,NCI-H2023; first compound 0.04 µM,0.515
same,relative viability,NCI-H2023; first compound 0.1265 µM,0.519
same,relative viability,NCI-H2023; first compound 0.4 µM,0.445
same,relative viability,NCI-H2023; first compound 1.265 µM,0.441
same,relative viability,NCI-H2023; first compound 4 µM,0.277
same,relative viability,BEN; first compound 0.04 µM,1.2
same,relative viability,BEN; first compound 0.1265 µM,1.16
same,relative viability,BEN; first compound 0.4 µM,1.13
same,relative viability,BEN; first compound 1.265 µM,0.683
same,relative viability,BEN; first compound 4 µM,0.993
same,relative viability,NCI-H2126; first compound 0.04 µM,0.972
same,relative viability,NCI-H2126; first compound 0.1265 µM,0.911
same,relative viability,NCI-H2126; first compound 0.4 µM,0.939
same,relative viability,NCI-H2126; first compound 1.265 µM,0.822
same,relative viability,NCI-H2126; first compound 4 µM,0.872
same,relative viability,201T; first compound 0.04 µM,0.841
same,relative viability,201T; first compound 0.1265 µM,0.844
same,relative viability,201T; first compound 1.265 µM,0.795
same,relative viability,201T; first compound 4 µM,0.831
same,relative viability,NCI-H650; first compound 0.04 µM,0.423
same,relative viability,NCI-H650; first compound 0.1265 µM,0.366
same,relative viability,NCI-H650; first compound 0.4 µM,0.408
same,relative viability,NCI-H650; first compound 1.265 µM,0.321
same,relative viability,NCI-H650; first compound 4 µM,0.239
same,relative viability,NCI-H441; first compound 0.04 µM,0.557
same,relative viability,NCI-H441; first compound 0.1265 µM,0.639
same,relative viability,NCI-H441; first compound 0.4 µM,0.701
same,relative viability,NCI-H441; first compound 1.265 µM,0.574
same,relative viability,NCI-H441; first compound 4 µM,0.434
same,relative viability,NCI-H522; first compound 0.04 µM,0.724
same,relative viability,NCI-H522; first compound 0.1265 µM,0.665
same,relative viability,NCI-H522; first compound 0.4 µM,0.761
same,relative viability,NCI-H522; first compound 1.265 µM,0.574
same,relative viability,NCI-H522; first compound 4 µM,0.594
